Source: patent US20240391954A1, “MC4R AGONIST PEPTIDES” (The Regents of the University of Michigan, priority 2021, published 2024)
Like-named read-outs stand apart in the source and are kept apart here. Positions of bridges follow the written chain, without caps; N, C: chain ends. Non-standard residues stand in square brackets, D forms with d. Residues, ends and D or L forms follow the SMILES beside them. dPhe(4-Br) = N[C@H](Cc1ccc(Br)cc1)C(=O)O; dPhe(4-I) = N[C@H](Cc1ccc(I)cc1)C(=O)O; Tic = O=C(O)[C@@H]1Cc2ccccc2CN1; Cit = NC(=O)NCCC[C@H](N)C(=O)O; Nle = CCCC[C@H](N)C(=O)O; Aib = CC(C)(N)C(=O)O

Tests used:
human MC4R = biological target: T1, human MC4R (Homo sapiens, UniProt P32245); assay: split-luciferase cAMP sensor assay, agonist mode (measurement window 1), hMC4R; format: cell-based; settings: for Emax / EC50: agonist mode; for Emax: read-out: MC4R cAMP % max activation
T1 construct: host or cells: HEK-293 cells stably expressing the GScAMP22F split-luciferase cAMP sensor and hMC4R, G418 selection
In short: (§1)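 EC50 values come from a four-parameter variable-slope fit of luminescence in measurement window 1, capturing direct peptide effects on receptor-expressing cells with a cAMP22f luciferase sensor. Cells were preloaded with 4% D-luciferin, serum-free medium; 20 μM forskolin normalized for cell number and transducer efficiency.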

human MC3R = biological target: T2, human MC3R (Homo sapiens, UniProt P41968); assay: split-luciferase cAMP sensor assay, agonist mode (measurement window 1), hMC3R; format: cell-based; settings: for EC50 / Emax: agonist mode; for Emax: read-out: MC3R cAMP % max activation
T2 construct: expressed in transfected cells; host or cells: HEK-293 cells stably expressing the GScAMP22F split-luciferase cAMP sensor (parent reporter line from Promega); MC3R clone generated in-house, G418 selection
In short: as §1

[1] = hMC3R stable cell line, read-out: MC3R cAMP EC50
[2] = hMC4R stable cell line, read-out: MC4R cAMP EC50

T1 sequence (P32245 whole entry): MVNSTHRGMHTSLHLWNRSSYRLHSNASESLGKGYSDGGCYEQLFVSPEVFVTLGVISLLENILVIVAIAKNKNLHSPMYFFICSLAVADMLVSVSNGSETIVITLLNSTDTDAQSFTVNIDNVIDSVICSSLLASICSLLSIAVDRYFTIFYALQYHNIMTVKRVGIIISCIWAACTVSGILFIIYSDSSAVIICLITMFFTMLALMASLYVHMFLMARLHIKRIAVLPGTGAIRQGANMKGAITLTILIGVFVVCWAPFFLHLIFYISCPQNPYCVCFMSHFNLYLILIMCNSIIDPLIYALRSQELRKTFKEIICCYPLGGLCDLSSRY
T2 sequence (P41968 whole entry): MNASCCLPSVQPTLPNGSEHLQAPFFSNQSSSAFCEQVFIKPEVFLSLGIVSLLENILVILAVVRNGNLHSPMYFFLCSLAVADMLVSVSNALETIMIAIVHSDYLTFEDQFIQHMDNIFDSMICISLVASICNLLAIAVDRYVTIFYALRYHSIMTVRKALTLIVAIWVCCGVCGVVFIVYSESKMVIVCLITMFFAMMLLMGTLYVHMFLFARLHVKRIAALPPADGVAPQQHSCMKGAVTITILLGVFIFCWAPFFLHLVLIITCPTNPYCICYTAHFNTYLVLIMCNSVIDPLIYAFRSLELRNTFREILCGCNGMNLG

SMILES: COc1ccc(C[C@H]2NC(=O)[C@H](CCCNC(N)=O)NC(=O)C(C)(C)NC(=O)[C@@H](NC(=O)[C@H](CCCNC(=N)N)NC(C)=O)CSSC[C@@H](C(N)=O)NC(=O)[C@@H](Cc3c[nH]c4ccccc34)NC(=O)[C@H](CCCNC(=N)N)NC2=O)cc1 [CTX-1600, Arg-cyclo(Cys-Aib-Cit-D-Tyr(4-OMe)-Arg-D-Trp-Cys)] (Ac-RC[Aib][Cit][dY](Me)R[dW]C-NH2; disulfide 2-8)
- MC4R selectivity vs MC1R (human MC4R): >70
- MC4R selectivity vs MC3R (human MC4R): >70
- Emax (human MC4R; hMC4R stable cell line): 58%
- EC50 (human MC3R; [1]): > 10000 nM

SMILES: CC(=O)N[C@H]1CSSC[C@@H](C(N)=O)NC(=O)[C@H](Cc2c[nH]c3ccccc23)NC(=O)[C@H](CCCNC(=N)N)NC(=O)[C@@H](Cc2ccccc2)NC(=O)[C@H](Cc2c[nH]cn2)NC(=O)[C@@H](C)NC1=O [CTX-1207, cyclo(Cys-D-Ala-His-D-Phe-Arg-Trp-Cys)]
- Emax (human MC4R; % maximal activation): 96%
- EC50 (human MC4R; MC4R cAMP EC50, HEK-293 cells stably expressing hMC4R): 0.91 nM
- Emax (human MC3R; % maximal activation): 89%
- EC50 (human MC3R; MC3R cAMP EC50, HEK-293 cells stably expressing hMC3R): 8.1 nM
- MC4R selectivity vs MC3R (human MC3R; MC4R versus MC3R): 8.87

SMILES: CC(=O)N[C@@H](CCCNC(=N)N)C(=O)N[C@H]1CSSC[C@@H](C(N)=O)NC(=O)[C@@H]2Cc3ccccc3CN2C(=O)[C@H](CCCNC(=N)N)NC(=O)[C@@H](Cc2ccc(Br)cc2)NC(=O)[C@H](CCCNC(=N)N)NC(=O)[C@@H](C)NC1=O [CTX-1259, Arg-cyclo(Cys-D-Ala-Arg-D-Phe(4-Br)-Arg-Tic-Cys)] (Ac-RC[dA]R[dPhe(4-Br)]R[Tic]C-NH2; disulfide 2-8 (inferred))
- MC4R selectivity vs MC1R (human MC4R): 0.01
- MC4R selectivity vs MC3R (human MC4R): 0.12
- Emax (human MC4R; hMC4R stable cell line): 70%
- Emax (human MC3R; hMC3R stable cell line): 27%

SMILES: CCCC[C@H](NC(=O)[C@H](CCCNC(=N)N)NC(C)=O)C(=O)N[C@H]1CSSC[C@@H](C(N)=O)NC(=O)[C@@H](Cc2c[nH]c3ccccc23)NC(=O)[C@H](CCCNC(=N)N)NC(=O)[C@@H](Cc2ccc(I)cc2)NC(=O)[C@H](Cc2c[nH]cn2)NC1=O [CTX-1233, Arg-Nle-cyclo(Cys-His-D-Phe(4-I)-Arg-D-Trp-Cys)] (Ac-R[Nle]CH[dPhe(4-I)]R[dW]C-NH2; disulfide 3-8 (inferred))
- MC4R selectivity vs MC1R (human MC4R): 0.26
- MC4R selectivity vs MC3R (human MC4R): 1.88
- Emax (human MC4R; hMC4R stable cell line): 16%
- EC50 (human MC4R; [2]): 2.2 nM
- Emax (human MC3R; hMC3R stable cell line): 22%
- EC50 (human MC3R; [1]): 4.1 nM

SMILES: CCCC[C@H](NC(=O)[C@H](CCCNC(=N)N)NC(C)=O)C(=O)N[C@H]1CSSC[C@@H](C(N)=O)NC(=O)[C@@H](Cc2c[nH]c3ccccc23)NC(=O)[C@H](CCCNC(=N)N)NC(=O)[C@@H](Cc2ccc(Br)cc2)NC(=O)[C@H](CCCNC(=N)N)NC1=O [CTX-1613, Arg-Nle-cyclo(Cys-Arg-D-Phe(4-Br)-Arg-D-Trp-Cys)] (Ac-R[Nle]CR[dPhe(4-Br)]R[dW]C-NH2; disulfide 3-8 (inferred))
- MC4R selectivity vs MC1R (human MC4R): 0.79
- MC4R selectivity vs MC3R (human MC4R): 2.1
- Emax (human MC4R; hMC4R stable cell line): 32%
- EC50 (human MC4R; [2]): 1.9 nM
- Emax (human MC3R; hMC3R stable cell line): 35%
- EC50 (human MC3R; [1]): 4 nM

SMILES: COc1ccc(C[C@H]2NC(=O)[C@H](CCCNC(=N)N)NC(=O)CNC(=O)[C@@H](NC(C)=O)CSSC[C@@H](C(N)=O)NC(=O)[C@H](Cc3ccccc3)NC(=O)[C@H](CCCNC(=N)N)NC2=O)cc1 [CTX-1641, cyclo(Cys-Gly-Arg-D-Tyr(4-OMe)-Arg-Phe-Cys)] (Ac-CGR[dY](Me)RFC-NH2; disulfide 1-7)
- MC4R selectivity vs MC1R (human MC4R): 0.28
- MC4R selectivity vs MC3R (human MC4R): 1.18
- Emax (human MC4R; hMC4R stable cell line): 104%
- Emax (human MC3R; hMC3R stable cell line): 22%
- EC50 (human MC3R; [1]): 52 nM

SMILES: CC(=O)N[C@@H](CCCNC(=N)N)C(=O)N[C@H]1CSSC[C@@H](C(N)=O)NC(=O)[C@@H](Cc2c[nH]c3ccccc23)NC(=O)[C@H](CCCNC(N)=O)NC(=O)[C@@H](Cc2ccccc2)NC(=O)[C@H](CCCNC(=N)N)NC(=O)C(C)(C)NC1=O [CTX-1271, Arg-cyclo(Cys-Aib-Arg-D-Phe-Cit-D-Trp-Cys)] (Ac-RC[Aib]R[dF][Cit][dW]C-NH2; disulfide 2-8 (inferred))
- MC4R selectivity vs MC1R (human MC4R): 2.9
- MC4R selectivity vs MC3R (human MC4R): 1.63
- Emax (human MC4R; hMC4R stable cell line): 95%
- EC50 (human MC4R; [2]): 72 nM
- Emax (human MC3R; hMC3R stable cell line): 16%
